Results: patent US20120029177A1, “HETEROCYCLE-AMINO ACID DERIVATIVES FOR TARGETING CANCER TISSUE AND RADIOACTIVE OR NON-RADIOACTIVE LABELED COMPOUNDS THEREOF” (SNU R&DB FOUNDATION, priority 2009, published 2012)
One block for each compound: values may come before it.

Legend:
[1] = test system: SNU-C4 xenografted nude mice; experiment: PET imaging of tumor xenografted mice; format: in vivo, mouse; conditions: PET at 1 and 2 hr post-injection, FIG. 2
Description: Human colon cancer cell line SNU-C4 was cultured in RPMI1640 media containing 10% fetal bovine serum and harvested using trypsin. The cells were washed using 10 mL PBS and centrifugation at 3,000 rpm. Each nude mouse was injected with 2×10^5 cells/0.1 mL on the right shoulder subcutaneously. On 14 days post-injection, each 10 μCi/0.1 mL of ^68Ga labeled agent was injected into the xenografted mice through the tail vein. The injected mice were anesthetized using 2% isoflurane, PET images were obtained at 1 and 2 hr post-injection using rodent R4, microPET scanner (Concorde Microsystem Inc.). The images were analyzed using ASIPro software (Concorde Microsystem Inc.).

CT-26 cells = experiment: In vitro cell uptake, CT-26 (FIG. 1b); format: cell-based, mouse; conditions: controls ^68Ga-DO2A, ^68Ga-DO3A
Description: Human colon cancer cell line SNU-C4 was purchased from Korea Cell Line Bank (KCLB). Human thyroid cell line ARO, human liver cancer cell line Hep3B, human glioma cell line U251MG and U87MG, and mouse colon cell line CT-26 were purchased from American Type Culture Collection (ATCC). SNU-C4 and ARO were culture in RPMI1640 (Welgene Inc., Korea) and Hep3B, U251 MG, U87MG, and CT-26 were cultured in DMEM (Welgene Inc., Korea). Penicillin, streptomycin and amphotericin B (10,000 IU/mL, 10 mg/mL and 25 μg/mL, respectively, Mediatech Inc., U.S.A.) 1% mixture and fetal bovine serum (Welgene Inc., Korea) were added to all cell culture media. Cell culture was done in 37° C. incubator with supply of 5% CO2.
About 1.8×10^5 cells/mL CT-26 and 1.2×10^5 cells/mL U87MG were put into 24-well incubation plate and incubated for 20 hr. When the each well was about 80% confluent with cells, 296 kBq/0.5 mL of ^68Ga labeled agent was added to each well. Culture supernatants were discarded at each time point and cells were washed with ice-cooled Hank's balanced salt solution (HBSS, pH7.3, Gibco, U.S.A.) 2 times. The cells were dissolved by 0.5% sodium dodecylsulfate (SDS), recovered and counted using a gamma counter (Packard, Can berra Co., U.S.A.). Total protein amount in each sample was measured by bicinchonic acid (BCA, Pierce, U.S.A.) method.

[2] = test system: SNU-C4 xenografted nude mice; experiment: Biodistribution study in SNU-C4 xenografted nude mice after intravenous injection; format: in vivo, mouse; conditions: for % ID/g Tumor: SNU-C4 tumor; for tumor uptake compared with the control heterocyclic compound (in words): SNU-C4 xenografted nude mice, 10 min to 2 hr
Description: Human colon cancer cell line SNU-C4 was cultured in RPMI1640 media containing 10% fetal bovine serum and harvested using trypsin. The cells were washed using 10 mL PBS and centrifugation at 3,000 rpm. Each nude mouse was injected with 2×10^5 cells/0.1 mL on the right shoulder subcutaneously. On 13 days post-injection, each 10 μCi/0.1 mL of ^68Ga labeled agent was injected into the xenografted mice through the tail vein. The injected mice were sacrificed at 10 min, 30 min, 1 hr, and 2 hr, cancer, blood, muscle, heart, liver, spleen, stomach, intestine, and bone were obtained, weighed, and their radioactivities were counted. The results were expressed as percentages of injected dose per gram tissue (% ID/g).

[3] = 10 min after intravenous injection
[4] = 30 min after intravenous injection
[5] = 1 hr after intravenous injection
[6] = 2 hr after intravenous injection

% ID/g Tumor [2, 3]: 3.22 ± 0.90 % ID/g
% ID/g Tumor [2, 4]: 2.49 ± 0.40 % ID/g
% ID/g Tumor [2, 5]: 2.44 ± 0.46 % ID/g
% ID/g Tumor [2, 6]: 2.98 ± 0.58 % ID/g
tumor uptake compared with the control heterocyclic compound (in words) [2]: higher and increasing by time
% ID/g Blood [2, 3]: 11.12 ± 0.49 % ID/g
% ID/g Blood [2, 4]: 8.35 ± 0.29 % ID/g
% ID/g Blood [2, 5]: 7.97 ± 1.29 % ID/g
% ID/g Blood [2, 6]: 6.07 ± 1.13 % ID/g
% ID/g Bone [2, 3]: 4.06 ± 0.44 % ID/g
% ID/g Bone [2, 4]: 3.63 ± 0.49 % ID/g
% ID/g Bone [2, 5]: 4.73 ± 0.69 % ID/g
% ID/g Bone [2, 6]: 5.00 ± 2.41 % ID/g
% ID/g Heart [2, 3]: 2.70 ± 0.18 % ID/g
% ID/g Heart [2, 4]: 1.80 ± 0.22 % ID/g
% ID/g Heart [2, 5]: 1.69 ± 0.40 % ID/g
% ID/g Heart [2, 6]: 1.30 ± 0.40 % ID/g
% ID/g Intestine [2, 3]: 2.48 ± 0.13 % ID/g
% ID/g Intestine [2, 4]: 1.74 ± 0.14 % ID/g
% ID/g Intestine [2, 5]: 1.87 ± 0.33 % ID/g
% ID/g Intestine [2, 6]: 4.38 ± 1.14 % ID/g
% ID/g Kidney [2, 3]: 60.06 ± 14.07 % ID/g
% ID/g Kidney [2, 4]: 9.10 ± 2.19 % ID/g
% ID/g Kidney [2, 5]: 4.82 ± 0.99 % ID/g
% ID/g Kidney [2, 6]: 6.06 ± 2.27 % ID/g
% ID/g Liver [2, 3]: 2.58 ± 0.07 % ID/g
% ID/g Liver [2, 4]: 2.30 ± 0.13 % ID/g
% ID/g Liver [2, 5]: 2.35 ± 0.25 % ID/g
% ID/g Liver [2, 6]: 2.52 ± 0.41 % ID/g
% ID/g Lung [2, 3]: 13.60 ± 2.37 % ID/g
% ID/g Lung [2, 4]: 9.35 ± 1.00 % ID/g
% ID/g Lung [2, 5]: 8.40 ± 1.17 % ID/g
% ID/g Lung [2, 6]: 8.04 ± 0.83 % ID/g
% ID/g Muscle [2, 3]: 3.52 ± 0.42 % ID/g
% ID/g Muscle [2, 4]: 2.03 ± 0.41 % ID/g
% ID/g Muscle [2, 5]: 1.38 ± 0.39 % ID/g
% ID/g Muscle [2, 6]: 1.33 ± 0.48 % ID/g
% ID/g Spleen [2, 3]: 2.59 ± 0.30 % ID/g
% ID/g Spleen [2, 4]: 2.33 ± 0.15 % ID/g
% ID/g Spleen [2, 5]: 2.33 ± 0.44 % ID/g
% ID/g Spleen [2, 6]: 2.19 ± 0.35 % ID/g
% ID/g Stomach [2, 3]: 1.97 ± 0.18 % ID/g
% ID/g Stomach [2, 4]: 1.53 ± 0.17 % ID/g
% ID/g Stomach [2, 5]: 1.53 ± 0.37 % ID/g
% ID/g Stomach [2, 6]: 11.42 ± 5.04 % ID/g
Structure (SMILES): N[C@@H](CN1CCN(CC(=O)[O-])CCN(CC(=O)[O-])CCN(CC(=O)[O-])CC1)C(=O)O.[68Ga+3] (stereo in doubt) [^68Ga-DO3A-ala]
tumor uptake in PET images [1]: high tumor uptakes
tumor cell uptake versus control agents (CT-26 cells): significantly increase tumor cell uptakes

% ID/g Tumor [2, 3]: 2.88 ± 0.39 % ID/g
% ID/g Tumor [2, 4]: 2.30 ± 0.53 % ID/g
% ID/g Tumor [2, 5]: 1.05 ± 0.33 % ID/g
% ID/g Tumor [2, 6]: 1.08 ± 0.18 % ID/g
tumor uptake compared with the control heterocyclic compound (in words) [2]: always higher than that of ^68Ga-DO2A
% ID/g Blood [2, 3]: 7.75 ± 0.97 % ID/g
% ID/g Blood [2, 4]: 5.26 ± 1.36 % ID/g
% ID/g Blood [2, 5]: 3.12 ± 0.89 % ID/g
% ID/g Blood [2, 6]: 1.94 ± 0.24 % ID/g
% ID/g Bone [2, 3]: 2.60 ± 0.56 % ID/g
% ID/g Bone [2, 4]: 2.22 ± 0.49 % ID/g
% ID/g Bone [2, 5]: 1.57 ± 0.52 % ID/g
% ID/g Bone [2, 6]: 1.06 ± 0.52 % ID/g
% ID/g Heart [2, 3]: 1.98 ± 0.06 % ID/g
% ID/g Heart [2, 4]: 1.19 ± 0.34 % ID/g
% ID/g Heart [2, 5]: 0.79 ± 0.34 % ID/g
% ID/g Heart [2, 6]: 0.45 ± 0.10 % ID/g
% ID/g Intestine [2, 3]: 1.91 ± 0.33 % ID/g
% ID/g Intestine [2, 4]: 1.40 ± 0.38 % ID/g
% ID/g Intestine [2, 5]: 3.91 ± 2.96 % ID/g
% ID/g Intestine [2, 6]: 0.77 ± 0.03 % ID/g
% ID/g Kidney [2, 3]: 13.33 ± 4.30 % ID/g
% ID/g Kidney [2, 4]: 14.50 ± 8.89 % ID/g
% ID/g Kidney [2, 5]: 4.71 ± 2.26 % ID/g
% ID/g Kidney [2, 6]: 3.99 ± 0.54 % ID/g
% ID/g Liver [2, 3]: 1.74 ± 0.25 % ID/g
% ID/g Liver [2, 4]: 1.46 ± 0.27 % ID/g
% ID/g Liver [2, 5]: 1.39 ± 0.47 % ID/g
% ID/g Liver [2, 6]: 0.99 ± 0.04 % ID/g
% ID/g Lung [2, 3]: 8.45 ± 0.98 % ID/g
% ID/g Lung [2, 4]: 8.23 ± 2.41 % ID/g
% ID/g Lung [2, 5]: 4.21 ± 1.47 % ID/g
% ID/g Lung [2, 6]: 3.23 ± 0.49 % ID/g
% ID/g Muscle [2, 3]: 2.08 ± 0.43 % ID/g
% ID/g Muscle [2, 4]: 1.81 ± 0.77 % ID/g
% ID/g Muscle [2, 5]: 0.87 ± 0.40 % ID/g
% ID/g Muscle [2, 6]: 0.49 ± 0.08 % ID/g
% ID/g Spleen [2, 3]: 1.61 ± 0.26 % ID/g
% ID/g Spleen [2, 4]: 1.30 ± 0.29 % ID/g
% ID/g Spleen [2, 5]: 1.24 ± 0.34 % ID/g
% ID/g Spleen [2, 6]: 0.82 ± 0.09 % ID/g
% ID/g Stomach [2, 3]: 2.48 ± 0.62 % ID/g
% ID/g Stomach [2, 4]: 1.49 ± 0.62 % ID/g
% ID/g Stomach [2, 5]: 12.82 ± 7.46 % ID/g
% ID/g Stomach [2, 6]: 0.38 ± 0.05 % ID/g
Structure (SMILES): NC(CN1CCN(CC(=O)[O-])CCNCCN(CC(=O)[O-])CC1)C(=O)[O-].[68Ga+3] (stereo not shown) [^68Ga-DO2A-ala]
tumor uptake in PET images [1]: high tumor uptakes
tumor cell uptake versus control agents (CT-26 cells): significantly increase tumor cell uptakes
